Source: patent US7354926B2, “Molecules derived from noraporphine” (Sederma SAS, priority 2002, dated 2008)

Columns and labels:
[1] = tested on: G-3-PDH (Glycerol-3-Phosphate deshydrogenase) activity in fibroblasts 3T3 L1 / pre-adipocytes; experiment: Inhibition of lipogenesis (in vitro): G-3-PDH activity in differentiating 3T3 L1 pre-adipocytes; type: cell-based; conditions: for ACTIVITY G-3-PDH/10^−6 cells (inhibition in % of the witness): average of 3 independent tests
Procedure: The following test is based on the fact that a cocktail from substances (hormonal messengers) induce the fibroblasts 3T3 L1 differentiation, in culture, into pre-adipocytes then in adipocytes charged with lipids.
The culture proceeds in three stages: cellular multiplication until confluence, addition of cocktail of differentiation (stage during which the initial pre-adipocytes are obtained (72 hours), then active differentiation with lipogenesis stimulation (approximately 72 hours) at the end of which apparent storage in lipidic droplets is then definitely visible under microscope.
The enzyme G-3-PDH (Glycerol-3-Phosphate deshydrogenase), essential to triglyceride synthesis is expressed very strongly during this active stage of lipidic storage.
The product to be tested is added at the second step.
After the incubation period the G-3-PDH activity is compared between the pre-adipocytes witnesses and those incubated in the presence of the tested product. Under these conditions, a product which inhibits the lipogenesis causes a fall of the G-3-PDH activity.
After the induced differentiation, the solution to test is added to the culture of pre-adipocytes, here a 2,9-diacetyloxy-1,10-dimethoxy-6-methyl-noraporphine solution (compound II). In parallel, two witness cultures, one in negative and the other in positive are carried out.
At the end of the incubation, the cells are taken and lysed and the test is carried out on the intracellular contents.
The G-3-PDH activity is measured by NADH disappearance (λ=340 nm).
The enzymatic activity values are standardized with the number of cells.

[2] = tested on: normal human melanocytes (MHN); experiment: Inhibition of melanin synthesis (in vitro) in culture of normal human melanocytes; type: cell-based; conditions: 7 days of exposure, various concentrations, vs control cells, normalized on protein content
Procedure: The efficacy of the products on melanization was tested in culture of normal human melanocytes (MHN). This culture medium is conventionally used to test variations in melanin levels. The cells are incubated in the presence of the test product for 7 days while the control cells are incubated in the culture medium alone.
After 7 days, the total melanin (phaeomelanin and eumelanin) present in the cells is determined after cell lysis and dissolution in sodium hydroxide, the assay is colorimetric.
The melanin level produced under exposure to the test product at various concentrations are compared to those obtained with the control cells. The data are normalized on the protein content of the sample.
The inhibition of synthesis observed after 7 days of exposure to those products is dependent on the test concentration. Inhibition varies from −28 to −51%.

[3] = Inhibition of peroxidation induced on liposomes by HO2/FeCl2 (Fenton reaction); conditions: 0.06 mmol/l; similar protocol with HO2/FeCl2 added to the liposomes
Procedure: (§1) In order to seek an antioxidant activity, we evaluated 2,9-diacetyloxy-1,10-dimethoxy-6-methyl-noraporphine (compound II) effect on the inhibition of peroxidation induced on liposomes by UVA or pair HO2/FeCl2.
(§2) The liposomes, once manufactured, receive the products to be tested in solution. Then they are put under UVA lamp and are irradiated to 10 J/cm^2. The liposomes are incubated at 45° C. After 24 hours, the lipidic peroxidation is quantified by estimating the rate of combined dienes markers. The effect of the product is compared with negative control.
A strong inhibition (−60% with 0.06 mmol/l) is also obtained in a similar protocol when HO2/FeCl2. is added (Fenton reaction) to the solution of liposomes.

[4] = Inhibition of peroxidation induced on liposomes by UVA; conditions: for Inhibition perox. UVA: UVA 10 J/cm^2, 45° C., 24 hours, combined dienes
Procedure: as §1, §2

Structure (SMILES): COc1cc2c(cc1OC(C)=O)CC1c3c(cc(OC(C)=O)c(OC)c3-2)CCN1C (centres unmarked) [compound II, 2,9-diacetyloxy-1,10-dimethoxy-6-methyl-noraporphine]
- ACTIVITY G-3-PDH/10^−6 cells (inhibition in % of the witness) ([1]; 0.03 mmol/l): −49%
- ACTIVITY G-3-PDH/10^−6 cells (inhibition in % of the witness) ([1]; 0.06 mmol/l): −67%
- Morphology of the preadipocytes under microscope ([1]; compared to witness cells): few lipidic inclusions
- Inhibition of melanin synthesis [2]: −28 to −51%
- Inhibition of peroxidation, HO2/FeCl2 (Fenton reaction) [3]: −60%
- Inhibition perox. UVA ([4]; 0.03 mmol/l): −93%
- Inhibition perox. UVA ([4]; 0.06 mmol/l): −87%
- Inhibition perox. UVA ([4]; 0.09 mmol/l): −89%
- Inhibition perox. UVA ([4]; 0.15 mmol/l): ≈−100%
- Inhibition perox. UVA ([4]; 0.30 mmol/l): ≈−100%
- Inhibition of lipidic peroxidation UVA induced (in words) ([4]; with the tested concentrations (0.03-0.30 mmol/l)): almost completely inhibits
